In patent US20230242544A1, “QUINAZOLINE COMPOUNDS, PREPARATION METHODS AND USES THEREOF” (INVENTISBIO CO., LTD., priority 2020, published 2023):

Legend:
Ba/F3_KRAS^G12D cells = Ba/F3_KRAS^G12D cells (Homo sapiens, UniProt P01116, G12D, cells depend on it); assay: Ba/F3 KRAS G12D cell proliferation assay (CellTiter-Glo); type: cell-based; conditions: treated for 3 days, cell-titer Glo, cell growth inhibition, read-out: BaF3_KRAS^G12D IC50
Description: Ba/F3_KRAS^G12D cells (KYinno, China) were generated by transducing Ba/F3 parental cells with the recombinant KRAS^G12D lentivirus and followed by 1 ug/mL of puromycin selection and IL3 depletion. […] Cells were seeded at a density of 5×10^3 per well into 96-well plate and incubated overnight. Serial diluted compounds were added to each well. Cells were treated with the compounds for 3 days, after which cell-titer Glo reagent (Promega #G7572) was used to assess cell proliferation. The luminescence signal was then collected on Tecan Spark plate reader. […] Cell growth inhibition of IC50 is calculated with the equation of Y=Bottom+(Top−Bottom)/(1+10^((Log IC50−X)*Hill Slope))

[1] = target: recombinant human KRAS^G12D protein (Homo sapiens, UniProt P01116, G12D); assay: Temperature-dependent Fluorescence (TdF) KRAS G12D protein binding assay; conditions: 6 μM KRAS^G12D protein, 10 μM compound, Sypro Orange; Kd calculated from the fluorescent shift
Chain of recombinant human KRAS^G12D protein (P01116 1-188 isoform P01116-2 G12D): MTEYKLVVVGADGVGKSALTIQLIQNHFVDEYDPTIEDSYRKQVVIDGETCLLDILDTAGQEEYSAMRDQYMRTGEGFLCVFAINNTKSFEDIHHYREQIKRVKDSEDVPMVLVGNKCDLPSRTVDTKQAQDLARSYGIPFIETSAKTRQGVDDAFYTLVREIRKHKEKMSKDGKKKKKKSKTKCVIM
Description: The Temperature-dependent Fluorescence (TdF) assay was used to analyze binding affinity of compound to recombinant human KRAS^G12D protein. The TdF assay was conducted in the 96-well-based real-time fluorescence plate reader (ABI 7500 or Roche LightCycler 480). Fluorescent dye Sypro Orange (Sigma) was used to monitor the protein folding-unfolding transition. Protein-compound binding was gauged by the shift in the unfolding transition temperature (ΔTm) acquired with and without compound. Each reaction sample consists of 6 μM KRAS^G12D Protein, 10 μM compound, and Sypro Orange dye (in 1% DMSO) in 20 μL reaction buffer (25 mM HEPES pH 7.5, 150 mM NaCl, 10 mM MgCl2). […] Binding affinity (Kd value) was calculated based on the degree of fluorescent shift of the protein with and without compound.

Chain of Ba/F3_KRAS^G12D cells (P01116 whole entry G12D): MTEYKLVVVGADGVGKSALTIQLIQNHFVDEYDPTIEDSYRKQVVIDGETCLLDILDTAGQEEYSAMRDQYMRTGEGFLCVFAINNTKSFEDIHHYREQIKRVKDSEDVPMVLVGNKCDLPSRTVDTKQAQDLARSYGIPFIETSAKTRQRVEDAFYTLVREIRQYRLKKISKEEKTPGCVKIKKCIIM

SMILES | GI50 (Ba/F3_KRAS^G12D cells) | Kd [1]
Oc1cc(-c2c(Cl)cc3c(N4CC5CCC(C4)N5)nc(OC[C@]45CCCN4C[C@@H](F)C5)nc3c2F)c2c(Cl)cccc2c1 (single isomer, unassigned) [Compound 102] | 500 to 5000 nM | > 5000 nM
Oc1cc(-c2c(Cl)cc3c(N4CC5CCC(C4)N5)nc(OC[C@@]45CCCN4C[C@H](F)C5)nc3c2F)c2c(Cl)cccc2c1 (single isomer, unassigned) [Compound 104] | 500 to 5000 nM | > 5000 nM
Oc1cc(-c2c(Cl)cc3c(N4CC5CCC(C4)N5)nc(OC[C@]45CCCN4C[C@@H](F)C5)nc3c2F)c2ccccc2c1 (single isomer, unassigned) [Compound 105] | 500 to 5000 nM | > 5000 nM
Oc1cc(-c2c(Cl)cc3c(N4CC5CCC(C4)N5)nc(OC[C@@]45CCCN4C[C@H](F)C5)nc3c2F)c2ccccc2c1 (single isomer, unassigned) [Compound 108] | 500 to 5000 nM | > 5000 nM
N#Cc1cc2c(N3CC4CCC(C3)N4)nc(OC[C@@]34CCCN3C[C@H](F)C4)nc2c(F)c1-c1cc(O)cc2cccc(Cl)c12 (single isomer, unassigned) [Compound 119] | 500 to 5000 nM | > 5000 nM
CCc1cccc2cc(O)cc(-c3c(Cl)cc4c(N5CC6CCC(C5)N6)nc(OC[C@@]56CCCN5C[C@H](F)C6)nc4c3F)c12 (single isomer, unassigned) [Compound 134] | 500 to 5000 nM | > 5000 nM
CN(C)CCCOc1nc(N2CC3CCC(C2)N3)c2cc(Cl)c(-c3c(N)cccc3F)c(F)c2n1 [Compound 9] | > 5000 nM | 
CN1CCC[C@H]1COc1nc(NC2CNC2)c2cc(Cl)c(-c3cc(O)cc4cccc(Cl)c34)c(F)c2n1 [Compound 15] |  | > 5000 nM
CN1CC(F)(F)CC1COc1nc(N2CC3CCC(C2)N3)c2cc(Cl)c(-c3cc(O)cc4ccccc34)c(F)c2n1 (stereo not shown) [Compound 34] | 500 to 5000 nM | 
CN1CCO[C@@H](COc2nc(N3CC4CCC(C3)N4)c3cc(Cl)c(-c4cc(O)cc5ccccc45)c(F)c3n2)C1 [Compound 37] | 500 to 5000 nM | 
CN1CCC(Oc2nc(N3CC4CCC(C3)N4)c3cc(Cl)c(-c4cc(O)cc5ccccc45)c(F)c3n2)CC1 [Compound 38] | 500 to 5000 nM | 
Oc1cccc(F)c1-c1c(Cl)cc2c(N3CC4CCC(C3)N4)nc(OCC34CCCN3CCC4)nc2c1F [Compound 63] |  | 500 to 5000 nM
Oc1cc(-c2c(Cl)cc3c(N4CC5CCC(C4)N5)nc(OC[C@@]45CCCN4C[C@H](F)C5)nc3c2F)c2ccccc2c1 [Compound 68] |  | < 500 nM
Oc1cc(-c2c(Cl)cc3c(N4CC5CCC(C4)N5)nc(OCC45CCCN4CCC5)nc3c2F)c2c(Cl)c(F)ccc2c1 [Compound 71] |  | < 500 nM
N#Cc1cc2c(N3CC4CCC(C3)N4)nc(OCC34CCCN3CCC4)nc2c(F)c1-c1cc(O)cc2ccccc12 [Compound 73] |  | < 500 nM
CC(C)N1CCC(Oc2nc(N3CC4CCC(C3)N4)c3cc(Cl)c(-c4cc(O)cc5ccccc45)c(F)c3n2)C1 (stereo not shown) [Compound 84] |  | > 5000 nM
N#Cc1cc2c(N3CC4CCC(C3)N4)nc(OC[C@@]34CCCN3C[C@H](F)C4)nc2c(F)c1-c1c(O)cccc1F [Compound 90] | > 5000 nM | 
N#Cc1cc2c(N3CC4CCC(C3)N4)nc(OC[C@@]34CCCN3C[C@H](F)C4)nc2c(F)c1-c1ccc(F)c2sc(N)nc12 [Compound 112] |  | < 500 nM
Cc1cc(N)nc(-c2c(SC(F)(F)F)cc3c(N4CCNC[C@@H]4C)nc(OC[C@@H]4CCCN4C)nc3c2F)c1C(F)(F)F [Compound 136] |  | > 5000 nM
COc1nc(N2CC3CCC(C2)N3)c2cc(Cl)c(-c3ccc(F)c4sc(N)nc34)c(F)c2n1 [Compound 141] |  | 500 to 5000 nM
CCOc1cc2c(N3CC4CCC(C3)N4)nc(OC[C@@]34CCCN3C[C@H](F)C4)nc2c(F)c1-c1cc(O)cc2cccc(CC)c12 [Compound 157] | 500 to 5000 nM | 
CCOc1cc2c(N3CC4CCC(C3)N4)nc(OC[C@@]34CCCN3C[C@H](F)C4)nc2c(F)c1-c1cc(O)cc2ccc(F)c(CC)c12 [Compound 159] | 500 to 5000 nM | 
C#Cc1c(F)ccc2cc(O)cc(-c3cc(OC(C)C)c4c(N5CC6CCC(C5)N6)nc(OC[C@@]56CCCN5C[C@H](F)C6)nc4c3F)c12 [Compound 169] | < 500 nM | 
C#Cc1c(F)ccc2cc(O)cc(-c3ccc4c(N5CC6CCC(C5)N6)nc(OC[C@@]56CCCN5C[C@H](F)C6)nc4c3F)c12 [Compound 170] | < 500 nM | 

Further lines, results first:

GI50 (Ba/F3_KRAS^G12D cells) | Kd [1] | SMILES
< 500 nM | < 500 nM | CCc1cccc2cc(O)cc(-c3c(Cl)cc4c(N5CC6CCC(C5)N6)nc(OC[C@@]56CCCN5C[C@H](F)C6)nc4c3F)c12 (racemic) [Compound 77]
< 500 nM | < 500 nM | Oc1cc(-c2c(Cl)cc3c(N4CC5CCC(C4)N5)nc(OC[C@]45CCCN4C[C@@H](F)C5)nc3c2F)c2c(Cl)cccc2c1 (single isomer, unassigned) [Compound 101]
< 500 nM | < 500 nM | Oc1cc(-c2c(Cl)cc3c(N4CC5CCC(C4)N5)nc(OC[C@@]45CCCN4C[C@H](F)C5)nc3c2F)c2c(Cl)cccc2c1 (single isomer, unassigned) [Compound 103]
< 500 nM | < 500 nM | Oc1cc(-c2c(Cl)cc3c(N4CC5CCC(C4)N5)nc(OC[C@]45CCCN4C[C@@H](F)C5)nc3c2F)c2ccccc2c1 (single isomer, unassigned) [Compound 106]
< 500 nM | < 500 nM | Oc1cc(-c2c(Cl)cc3c(N4CC5CCC(C4)N5)nc(OC[C@@]45CCCN4C[C@H](F)C5)nc3c2F)c2ccccc2c1 (single isomer, unassigned) [Compound 107]
< 500 nM | < 500 nM | Cc1cccc2cc(O)cc(-c3c(Cl)cc4c(N5CC6CCC(C5)N6)nc(OC[C@@]56CCCN5C[C@H](F)C6)nc4c3F)c12 (single isomer, unassigned) [Compound 117]
< 500 nM | < 500 nM | Cc1cccc2cc(O)cc(-c3c(Cl)cc4c(N5CC6CCC(C5)N6)nc(OC[C@@]56CCCN5C[C@H](F)C6)nc4c3F)c12 (single isomer, unassigned) [Compound 118]
< 500 nM | < 500 nM | N#Cc1cc2c(N3CC4CCC(C3)N4)nc(OC[C@@]34CCCN3C[C@H](F)C4)nc2c(F)c1-c1cc(O)cc2cccc(Cl)c12 (single isomer, unassigned) [Compound 120]
< 500 nM | < 500 nM | CCc1cccc2cc(O)cc(-c3c(Cl)cc4c(N5CC6CCC(C5)N6)nc(OC[C@@]56CCCN5C[C@H](F)C6)nc4c3F)c12 (single isomer, unassigned) [Compound 133]
< 500 nM |  | CCc1c(F)ccc2cc(O)cc(-c3c(Cl)cc4c(N5CC6CCC(C5)N6)nc(OC[C@@]56CCCN5C[C@H](F)C6)nc4c3F)c12 (single isomer, unassigned) [Compound 147]
< 500 nM |  | CCc1c(F)ccc2cc(O)cc(-c3c(Cl)cc4c(N5CC6CCC(C5)N6)nc(OC[C@@]56CCCN5C[C@H](F)C6)nc4c3F)c12 (single isomer, unassigned) [Compound 148]
< 500 nM |  | C#Cc1c(F)ccc2cc(O)cc(-c3c(Cl)cc4c(N5CC6CCC(C5)N6)nc(OC[C@@]56CCCN5C[C@H](F)C6)nc4c3F)c12 (single isomer, unassigned) [Compound 155]
< 500 nM |  | C#Cc1c(F)ccc2cc(O)cc(-c3c(F)cc4c(N5CC6CCC(C5)N6)nc(OC[C@@]56CCCN5C[C@H](F)C6)nc4c3F)c12 (single isomer, unassigned) [Compound 165]
< 500 nM |  | CCc1c(F)ccc2cc(O)cc(-c3c(C#N)cc4c(N5CC6CCC(C5)N6)nc(OC[C@@]56CCCN5C[C@H](F)C6)nc4c3F)c12 [Compound 149]
< 500 nM |  | CCc1c(F)ccc2cc(O)cc(-c3c(C#N)cc4c(N5CC6CCC(C5)N6)nc(OC[C@@]56CCCN5C[C@H](F)C6)nc4c3F)c12 [Compound 150]
< 500 nM |  | CCOc1cc2c(N3CC4CCC(C3)N4)nc(OC[C@@]34CCCN3C[C@H](F)C4)nc2c(F)c1-c1cc(O)cc2cccc(CC)c12 [Compound 156]
< 500 nM |  | CCOc1cc2c(N3CC4CCC(C3)N4)nc(OC[C@@]34CCCN3C[C@H](F)C4)nc2c(F)c1-c1cc(O)cc2ccc(F)c(CC)c12 [Compound 158]
< 500 nM |  | C#Cc1c(F)ccc2cc(O)cc(-c3c(OCC)cc4c(N5CC6CCC(C5)N6)nc(OC[C@@]56CCCN5C[C@H](F)C6)nc4c3F)c12 [Compound 160]
< 500 nM |  | C#Cc1c(F)ccc2cc(O)cc(-c3c(OCC)cc4c(N5CC6CCC(C5)N6)nc(OC[C@@]56CCCN5C[C@H](F)C6)nc4c3F)c12 [Compound 161]
< 500 nM |  | C#Cc1c(F)ccc2cc(O)cc(-c3c(OC)cc4c(N5CC6CCC(C5)N6)nc(OC[C@@]56CCCN5C[C@H](F)C6)nc4c3F)c12 [Compound 162]
< 500 nM |  | CCc1c(F)ccc2cc(O)cc(-c3c(OC)cc4c(N5CC6CCC(C5)N6)nc(OC[C@@]56CCCN5C[C@H](F)C6)nc4c3F)c12 [Compound 164]
< 500 nM |  | C#Cc1c(F)ccc2cc(O)cc(-c3cc(OC)c4c(N5CC6CCC(C5)N6)nc(OC[C@@]56CCCN5C[C@H](F)C6)nc4c3F)c12 [Compound 167]
